Measurements taken from ChEMBL document CHEMBL5390241, “Natural Enfumafungin Analogues from Hormonema carpetanum and Their Antifungal Activities” (2023).
In brackets after ≈: the same amount, converted by molar mass.

Columns and labels:
Type in all cases: functional
Candida tropicalis = assay: Antifungal activity against Candida tropicalis 8915 assessed as inhibition in growth incubated for 48 hrs by broth microdilution method
Candida albicans [1] = assay: Antifungal activity against Candida albicans SC5314 assessed as inhibition in growth incubated for 48 hrs by broth microdilution method
Nakaseomyces glabratus = assay: Antifungal activity against Candida glabrata 537 assessed as inhibition in growth incubated for 48 hrs by broth microdilution method
Candida parapsilosis = assay: Antifungal activity against Candida parapsilosis 22019 assessed as inhibition in growth incubated for 48 hrs by broth microdilution method; settings: Lodderomyces parapsilosis
Cryptococcus neoformans [2] = assay: Antifungal activity against Cryptococcus neoformans 32609 assessed as inhibition in growth incubated for 48 hrs by broth microdilution method
Candida albicans [3] = assay: Antifungal activity against Candida albicans 10231 assessed as inhibition in growth incubated for 48 hrs by broth microdilution method
Pichia kudriavzevii = assay: Antifungal activity against candida krusei 4996 assessed as inhibition in growth incubated for 48 hrs by broth microdilution method
[Candida] auris [4] = Antifungal activity against Candida auris 918 assessed as inhibition in growth incubated for 48 hrs by broth microdilution method; settings: Candidozyma auris
[Candida] auris [5] = Antifungal activity against Candida auris 919 assessed as inhibition in growth incubated for 48 hrs by broth microdilution method; settings: Candidozyma auris
Cryptococcus neoformans [6] = assay: Antifungal activity against Cryptococcus neoformans H99 assessed as inhibition in growth incubated for 48 hrs by broth microdilution method

SMILES | MIC80 (Candida tropicalis) [µg/mL] | MIC80 (Candida albicans [1]) [µg/mL] | MIC80 (Nakaseomyces glabratus) [µg/mL] | MIC80 (Candida parapsilosis) [µg/mL] | MIC80 (Cryptococcus neoformans [2]) [µg/mL] | MIC80 (Candida albicans [3]) [µg/mL] | MIC80 (Pichia kudriavzevii) [µg/mL] | MIC80 ([Candida] auris [4]) [µg/mL] | MIC80 ([Candida] auris [5]) [µg/mL] | MIC80 (Cryptococcus neoformans [6]) [µg/mL]
CC(=O)O[C@@H]1C[C@]23C4=CC[C@@]5(C)[C@H](C(=O)O)[C@@](C)([C@H](C)C(C)C)CC[C@]5(C)[C@H]4CC[C@H]2[C@@](C)(COC3O)[C@H]1O[C@@H]1O[C@H](CO)[C@@H](O)[C@H](O)[C@H]1O (stereo not given in full) [ENFUMAFUNGIN] | 4 (≈ 5.64 µM) | 4 (≈ 5.64 µM) | 8 (≈ 11.3 µM) | 8 (≈ 11.3 µM) | 8 (≈ 11.3 µM) | 4 (≈ 5.64 µM) | 8 (≈ 11.3 µM) | 64 (≈ 90.3 µM) | 64 (≈ 90.3 µM) | 4 (≈ 5.64 µM)
OC(Cn1cncn1)(Cn1cncn1)c1ccc(F)cc1F [FLUCONAZOLE] | > 64 | 1 (≈ 3.27 µM) | 1 (≈ 3.27 µM) | 4 (≈ 13.1 µM) | 1 (≈ 3.27 µM) | > 64 | > 64 | > 64 | > 64 | > 64
CC(C)[C@@H](C)[C@@]1(C)CC[C@]2(C)[C@H]3CC[C@H]4[C@@]5(C)COC(O)[C@@]4(C[C@@H](O)[C@@H]5O[C@@H]4O[C@H](CO)[C@@H](O)[C@H](O)[C@H]4O)C3=CC[C@@]2(C)[C@@H]1C(=O)O (stereo not given in full) | > 64 | > 64 | 32 (≈ 48 µM) | > 64 | > 64 | > 64 | 64 (≈ 96 µM) | > 64 | > 64 | > 64
CC(=O)O[C@@H]1C[C@]23C4=CC[C@@]5(C)[C@@H]6C(=O)C[C@H](C(C)C)[C@@]6(C)CC[C@]5(C)[C@H]4CC[C@H]2[C@@](C)(COC3O)[C@H]1O[C@@H]1O[C@H](CO)[C@@H](O)[C@H](O)[C@H]1O (stereo not given in full) | 64 (≈ 92.6 µM) | 64 (≈ 92.6 µM) | 16 (≈ 23.2 µM) | > 64 | 64 (≈ 92.6 µM) | 32 (≈ 46.3 µM) | 64 (≈ 92.6 µM) | > 64 | > 64 | 32 (≈ 46.3 µM)
